Test results: ChEMBL document CHEMBL1201862, “PubChem BioAssay data set” (2004)
Calls of active or inactive are those of the source.

What was measured:
[1] = target: Type-1 angiotensin II receptor (Homo sapiens, UniProt P30556); assay: antagonism of angiotensin II type 1 receptor – cell-based, uHTS hits, selectivity assay for APJ receptor antagonist project, dose response (AID 463214); type: functional;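 also: antagonist potency against angiotensin II stimulated AT1 response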
Beta-galactosidase = Beta-galactosidase (Escherichia coli, UniProt Q8VNN2); assay: PubChem AID 485352; type: functional
[2] = target: Aryl hydrocarbon receptor (Homo sapiens, UniProt P35869); details: Potency;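 also: confirmatory quantitative high-throughput screen measuring activation of the AhR signaling pathway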
Beta Lactamase = Beta Lactamase (Pseudomonas aeruginosa, UniProt Q932Y6); assay: BLA reporter interference, concentration series – BLA reporter cells, FRET fluorescence, artefact control for TLR9-MyD88 binding inhibitor project, dose response (AID 588341); type: cell-based;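 also: cell based assay in CHO-K1 cells stably expressing beta-lactamase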
CHO = CHO cell viability loss, potency – luminescence, cytotoxicity control for TLR9-MyD88 binding inhibitor project, dose response (AID 588339); type: functional, cell-based, hamster; details: Cricetulus griseus;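 also: CHO cells stably coexpressing TLR9 and MyD88 fusions from primary screen; compound exposure lasted 48 hours before viability readout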
[3] = target: Voltage-gated inwardly rectifying potassium channel KCNH2 (Homo sapiens, UniProt Q12809); details: Potency;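 also: confirmatory quantitative high-throughput screen measuring inhibition of hERG channel activity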
Protein Wnt-3a = Protein Wnt-3a (Mus musculus, UniProt P27467); assay: antagonism of Wnt3a pathway luciferase reporter – Wnt-LIGHT cells, luminescence, selectivity assay for Gli-SUFU antagonist project, dose response (AID 651570); type: functional; details: read-out: IC50_Mean;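 also: Wnt-LIGHT reporter cells stimulated with conditioned medium from Wnt3a-producing cells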
H4 = assay: Luminescence Cell-Based Dose Response HTS to Identify Activators of 5'UTR Stem-Loop Driven Prion Protein mRNA Translation in H4 Neuroglioblastoma Cells. [Related pubchem assays: 1829 (Project Summary), 1814 (Primary HTS)]; type: functional; details: Homo sapiens
[4] = Luminescence Cell-Based Dose Response HTS to Identify Activators of Luciferase Translation or Activity in H4 […] Cells. [Related pubchem assays: 1829 (Project Summary), 1814 (Primary HTS)]; type: functional
[5] = target: Beta-2 adrenergic receptor (Homo sapiens, UniProt P07550); assay: ADRB2 activation measured by internalization – cell-based, FAP fluorogen, flow cytometry, cherry pick 1, dose response (AID 588763); type: functional
HEK293 [6] = assay: optical interference in Abeta FP readout, dose response, artefact control for IDE activator project, biochemical, fluorescence polarization (AID 588442); type: functional, cell-based; details: Homo sapiens
Insulin-degrading enzyme [7] = target: T1, Insulin-degrading enzyme (Homo sapiens, UniProt P14735); assay: cellular IDE activation of Abeta substrate cleavage – fluorescence polarization, HEK cells, dose response (AID 588439); type: functional, cell-based
T1 sequence (P14735 whole entry): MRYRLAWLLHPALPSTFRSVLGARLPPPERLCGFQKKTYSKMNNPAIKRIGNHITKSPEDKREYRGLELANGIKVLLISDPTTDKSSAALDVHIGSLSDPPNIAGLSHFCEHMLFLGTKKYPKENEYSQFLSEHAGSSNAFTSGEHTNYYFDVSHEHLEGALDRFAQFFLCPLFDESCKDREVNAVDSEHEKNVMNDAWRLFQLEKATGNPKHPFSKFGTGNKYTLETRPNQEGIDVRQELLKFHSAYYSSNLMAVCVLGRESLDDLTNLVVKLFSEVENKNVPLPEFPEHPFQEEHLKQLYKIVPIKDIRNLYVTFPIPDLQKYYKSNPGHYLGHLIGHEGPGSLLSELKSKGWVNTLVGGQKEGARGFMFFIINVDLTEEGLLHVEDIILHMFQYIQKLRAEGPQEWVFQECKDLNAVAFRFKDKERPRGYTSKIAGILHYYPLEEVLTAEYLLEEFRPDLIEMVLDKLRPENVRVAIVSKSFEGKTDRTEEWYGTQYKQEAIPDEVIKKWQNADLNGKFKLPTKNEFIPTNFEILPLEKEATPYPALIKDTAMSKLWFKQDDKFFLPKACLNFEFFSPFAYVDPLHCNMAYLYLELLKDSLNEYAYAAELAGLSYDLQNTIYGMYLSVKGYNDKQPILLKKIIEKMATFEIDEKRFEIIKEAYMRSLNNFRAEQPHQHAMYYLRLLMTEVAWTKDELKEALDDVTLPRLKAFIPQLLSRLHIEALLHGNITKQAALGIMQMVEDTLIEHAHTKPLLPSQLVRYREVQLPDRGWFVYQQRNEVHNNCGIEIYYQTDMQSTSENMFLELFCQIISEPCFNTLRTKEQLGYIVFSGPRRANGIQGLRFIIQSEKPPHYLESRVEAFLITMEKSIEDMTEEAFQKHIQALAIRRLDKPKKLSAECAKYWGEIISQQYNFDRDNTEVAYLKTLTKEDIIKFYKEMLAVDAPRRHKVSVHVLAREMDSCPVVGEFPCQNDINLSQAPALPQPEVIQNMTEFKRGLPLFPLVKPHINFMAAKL

HEK293 [8] = assay: membrane integrity loss in HEK cells – cell-based, fluorescence, cytotoxicity control for IDE activator project, dose response (AID 588440); type: functional; details: Homo sapiens;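 also: cytotoxicity by LDH release measuring loss of membrane integrity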
Insulin-degrading enzyme [9] = target: T1, Insulin-degrading enzyme; assay: recombinant IDE activation, cell-free – biochemical, fluorescence polarization, counter-screen for IDE activator project, dose response (AID 588681)
Phospholipase A2 = Phospholipase A2 (Homo sapiens, UniProt P04054); type: functional;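 also: confirmatory dose-response counterscreen on phospholipase A2, testing hits that came from an ultra-high-throughput screen for ATG4B inhibitors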
Cysteine protease ATG4B = target: T2, Cysteine protease ATG4B (Homo sapiens, UniProt Q9Y4P1); type: functional;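 also: Fluorescence-based dose-response confirmation assay measuring inhibition of ATG4B activity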
T2 sequence (Q9Y4P1 whole entry): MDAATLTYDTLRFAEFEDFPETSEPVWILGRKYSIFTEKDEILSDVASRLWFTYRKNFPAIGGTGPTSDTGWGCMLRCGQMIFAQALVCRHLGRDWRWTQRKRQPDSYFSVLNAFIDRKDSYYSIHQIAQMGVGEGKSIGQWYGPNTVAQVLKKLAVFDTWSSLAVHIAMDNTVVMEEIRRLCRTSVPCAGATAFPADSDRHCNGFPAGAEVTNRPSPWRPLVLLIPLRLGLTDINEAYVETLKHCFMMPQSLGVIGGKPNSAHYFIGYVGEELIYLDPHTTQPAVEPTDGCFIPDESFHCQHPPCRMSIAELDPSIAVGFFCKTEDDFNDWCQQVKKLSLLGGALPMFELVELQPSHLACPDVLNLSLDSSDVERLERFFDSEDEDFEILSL

Chain of Beta-2 adrenergic receptor (P07550 whole entry): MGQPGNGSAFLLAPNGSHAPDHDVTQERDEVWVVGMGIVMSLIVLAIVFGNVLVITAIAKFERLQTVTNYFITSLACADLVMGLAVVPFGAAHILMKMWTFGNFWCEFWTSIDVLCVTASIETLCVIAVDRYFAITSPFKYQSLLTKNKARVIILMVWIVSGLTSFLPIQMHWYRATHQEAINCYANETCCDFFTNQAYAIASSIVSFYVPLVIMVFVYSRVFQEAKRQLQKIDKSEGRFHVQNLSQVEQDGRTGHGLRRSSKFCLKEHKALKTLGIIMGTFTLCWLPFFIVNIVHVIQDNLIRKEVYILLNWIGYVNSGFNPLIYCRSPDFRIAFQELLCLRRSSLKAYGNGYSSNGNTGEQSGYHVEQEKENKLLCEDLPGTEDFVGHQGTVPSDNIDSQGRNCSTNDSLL
Chain of Type-1 angiotensin II receptor (P30556 whole entry): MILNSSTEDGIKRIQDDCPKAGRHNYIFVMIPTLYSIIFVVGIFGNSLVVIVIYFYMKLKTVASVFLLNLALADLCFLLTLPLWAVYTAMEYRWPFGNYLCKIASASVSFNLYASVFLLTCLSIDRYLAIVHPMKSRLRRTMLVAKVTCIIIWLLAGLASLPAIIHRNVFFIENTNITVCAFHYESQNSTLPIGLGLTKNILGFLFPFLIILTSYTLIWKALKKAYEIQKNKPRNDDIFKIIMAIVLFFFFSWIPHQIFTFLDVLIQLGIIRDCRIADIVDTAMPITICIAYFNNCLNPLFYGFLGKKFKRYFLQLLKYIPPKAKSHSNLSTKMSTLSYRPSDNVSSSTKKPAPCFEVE
Chain of Beta Lactamase (Q932Y6 whole entry, the tested form may be a part): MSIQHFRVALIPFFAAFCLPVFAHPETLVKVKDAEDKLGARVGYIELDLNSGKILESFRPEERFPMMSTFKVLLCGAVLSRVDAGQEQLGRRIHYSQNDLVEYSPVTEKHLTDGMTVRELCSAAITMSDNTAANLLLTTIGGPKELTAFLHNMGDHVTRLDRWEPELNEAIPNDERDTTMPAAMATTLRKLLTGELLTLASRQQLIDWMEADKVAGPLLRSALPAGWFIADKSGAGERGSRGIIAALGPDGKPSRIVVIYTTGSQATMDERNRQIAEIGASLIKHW
Chain of Protein Wnt-3a (P27467 whole entry): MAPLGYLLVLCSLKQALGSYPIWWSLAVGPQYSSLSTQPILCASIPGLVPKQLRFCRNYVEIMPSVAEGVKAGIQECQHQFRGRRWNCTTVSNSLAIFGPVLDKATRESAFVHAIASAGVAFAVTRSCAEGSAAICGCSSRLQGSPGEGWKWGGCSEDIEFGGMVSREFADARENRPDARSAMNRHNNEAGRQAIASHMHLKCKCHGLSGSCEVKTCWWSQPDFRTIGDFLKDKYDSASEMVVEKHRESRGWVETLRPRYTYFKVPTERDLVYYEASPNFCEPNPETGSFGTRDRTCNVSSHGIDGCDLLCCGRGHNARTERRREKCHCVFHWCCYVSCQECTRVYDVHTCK
Chain of Beta-galactosidase (Q8VNN2 whole entry): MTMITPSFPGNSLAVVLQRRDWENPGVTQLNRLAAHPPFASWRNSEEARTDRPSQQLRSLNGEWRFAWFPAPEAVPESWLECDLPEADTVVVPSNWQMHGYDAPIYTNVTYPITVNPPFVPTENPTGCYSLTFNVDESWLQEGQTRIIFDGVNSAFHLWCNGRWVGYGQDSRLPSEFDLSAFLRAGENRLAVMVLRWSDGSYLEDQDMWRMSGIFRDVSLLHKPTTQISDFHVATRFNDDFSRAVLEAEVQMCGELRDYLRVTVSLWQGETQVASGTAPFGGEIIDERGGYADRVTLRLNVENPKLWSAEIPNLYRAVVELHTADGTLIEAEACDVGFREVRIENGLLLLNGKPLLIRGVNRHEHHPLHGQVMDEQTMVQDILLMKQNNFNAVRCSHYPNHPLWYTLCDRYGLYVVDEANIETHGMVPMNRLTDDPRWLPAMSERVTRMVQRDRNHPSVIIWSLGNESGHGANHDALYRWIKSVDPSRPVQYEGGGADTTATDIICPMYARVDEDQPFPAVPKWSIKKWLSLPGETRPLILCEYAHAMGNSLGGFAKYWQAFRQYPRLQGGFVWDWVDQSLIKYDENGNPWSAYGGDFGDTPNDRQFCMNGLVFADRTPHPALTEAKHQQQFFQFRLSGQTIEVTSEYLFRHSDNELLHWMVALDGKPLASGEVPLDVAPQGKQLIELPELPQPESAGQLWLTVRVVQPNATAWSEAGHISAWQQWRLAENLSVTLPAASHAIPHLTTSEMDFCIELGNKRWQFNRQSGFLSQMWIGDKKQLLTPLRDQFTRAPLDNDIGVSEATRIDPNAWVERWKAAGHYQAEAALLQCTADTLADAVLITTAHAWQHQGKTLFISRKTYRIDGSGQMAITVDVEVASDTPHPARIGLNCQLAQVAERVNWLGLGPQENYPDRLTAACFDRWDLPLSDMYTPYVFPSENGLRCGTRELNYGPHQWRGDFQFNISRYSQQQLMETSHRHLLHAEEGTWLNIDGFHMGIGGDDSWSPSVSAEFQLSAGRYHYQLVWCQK
Chain of Voltage-gated inwardly rectifying potassium channel KCNH2 (Q12809 whole entry): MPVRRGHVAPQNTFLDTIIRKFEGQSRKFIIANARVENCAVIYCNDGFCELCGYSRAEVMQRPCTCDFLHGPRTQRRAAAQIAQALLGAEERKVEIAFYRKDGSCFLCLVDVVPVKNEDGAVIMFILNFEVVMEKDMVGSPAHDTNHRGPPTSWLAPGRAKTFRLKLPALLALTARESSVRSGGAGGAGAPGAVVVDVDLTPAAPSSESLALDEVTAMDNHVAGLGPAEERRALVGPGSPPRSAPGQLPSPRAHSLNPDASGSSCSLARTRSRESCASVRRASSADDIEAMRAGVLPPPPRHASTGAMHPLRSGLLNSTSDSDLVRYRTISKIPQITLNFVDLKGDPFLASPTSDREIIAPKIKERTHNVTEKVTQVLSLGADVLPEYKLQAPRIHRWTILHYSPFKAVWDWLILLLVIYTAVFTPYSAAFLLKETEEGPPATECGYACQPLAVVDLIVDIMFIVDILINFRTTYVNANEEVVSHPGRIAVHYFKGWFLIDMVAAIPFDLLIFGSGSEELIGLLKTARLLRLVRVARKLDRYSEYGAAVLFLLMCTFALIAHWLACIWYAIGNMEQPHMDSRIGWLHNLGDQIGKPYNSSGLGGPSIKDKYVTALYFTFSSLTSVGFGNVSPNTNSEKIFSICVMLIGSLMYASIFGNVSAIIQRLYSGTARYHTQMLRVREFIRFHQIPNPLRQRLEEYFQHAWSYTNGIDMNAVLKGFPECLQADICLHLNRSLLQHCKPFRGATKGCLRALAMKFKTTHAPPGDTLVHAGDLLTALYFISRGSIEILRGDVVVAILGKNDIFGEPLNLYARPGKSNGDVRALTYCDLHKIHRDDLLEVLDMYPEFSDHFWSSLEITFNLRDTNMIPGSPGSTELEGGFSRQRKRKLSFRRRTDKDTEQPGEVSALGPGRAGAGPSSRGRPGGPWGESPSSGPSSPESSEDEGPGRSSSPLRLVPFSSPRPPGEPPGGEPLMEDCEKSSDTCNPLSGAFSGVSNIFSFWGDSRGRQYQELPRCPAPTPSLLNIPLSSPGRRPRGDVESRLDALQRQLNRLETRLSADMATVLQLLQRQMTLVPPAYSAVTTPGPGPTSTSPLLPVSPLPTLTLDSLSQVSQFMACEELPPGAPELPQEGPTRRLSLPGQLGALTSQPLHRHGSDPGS
Chain of Phospholipase A2 (P04054 whole entry): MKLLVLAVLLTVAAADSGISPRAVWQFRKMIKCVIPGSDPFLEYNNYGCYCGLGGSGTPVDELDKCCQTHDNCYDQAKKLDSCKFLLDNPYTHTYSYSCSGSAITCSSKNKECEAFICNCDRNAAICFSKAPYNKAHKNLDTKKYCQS
Chain of Aryl hydrocarbon receptor (P35869 whole entry): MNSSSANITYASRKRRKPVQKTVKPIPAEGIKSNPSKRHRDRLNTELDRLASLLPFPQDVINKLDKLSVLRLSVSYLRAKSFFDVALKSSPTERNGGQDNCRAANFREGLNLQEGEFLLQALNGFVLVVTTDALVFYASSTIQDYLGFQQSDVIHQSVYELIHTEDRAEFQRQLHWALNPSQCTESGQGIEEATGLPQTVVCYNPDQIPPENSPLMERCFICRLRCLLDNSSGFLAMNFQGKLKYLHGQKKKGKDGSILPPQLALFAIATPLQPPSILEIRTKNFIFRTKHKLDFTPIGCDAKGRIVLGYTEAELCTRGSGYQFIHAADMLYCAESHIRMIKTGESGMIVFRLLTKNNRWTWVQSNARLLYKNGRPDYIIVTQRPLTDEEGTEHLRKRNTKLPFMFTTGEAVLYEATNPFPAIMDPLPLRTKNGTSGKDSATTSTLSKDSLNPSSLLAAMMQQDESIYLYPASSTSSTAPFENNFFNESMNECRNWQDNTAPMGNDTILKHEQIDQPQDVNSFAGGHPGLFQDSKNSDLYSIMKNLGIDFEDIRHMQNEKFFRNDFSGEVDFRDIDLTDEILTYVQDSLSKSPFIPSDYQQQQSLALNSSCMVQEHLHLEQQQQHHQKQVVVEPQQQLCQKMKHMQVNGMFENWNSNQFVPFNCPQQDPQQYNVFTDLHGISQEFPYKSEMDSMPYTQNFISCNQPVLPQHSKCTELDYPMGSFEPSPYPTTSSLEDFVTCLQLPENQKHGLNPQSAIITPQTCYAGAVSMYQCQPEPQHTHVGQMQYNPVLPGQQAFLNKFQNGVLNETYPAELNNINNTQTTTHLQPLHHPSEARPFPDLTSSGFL

For `O=C(CNS(=O)(=O)c1ccccc1)OCC(=O)c1cccc([N+](=O)[O-])c1`, the IC50 [1] was 38.1 µM (not active) and the EC50 (Beta-galactosidase) was > 40 µM (inactive).

With `CCCCOCC1CO1` (configuration not stated) the AC50 [2] was 56.2 µM (inconclusive).

For `O=[N+]([O-])c1ccc(-c2ccc(/C=N/Nc3nc(NCc4ccccc4)nc(N4CCOCC4)n3)o2)cc1`, the IC50 (Beta Lactamase) was 4.69 µM (active) and the IC50 (CHO) was 15.9 µM (inactive).

In the case of `CCOC(=O)C1=C(C)NC(C)=C(C(=O)OC)C1c1cccc(Cl)c1Cl` (configuration not stated) [FELODIPINE], the AC50 [3] is reported as 20 µM (inconclusive).

For `Cc1cc(Nc2ccc([N+](=O)[O-])cc2)c2ccccc2n1`, the IC50 (Protein Wnt-3a) was 14.1 µM (active).

For `COc1ccc(S(=O)(=O)N2CCCC(C(=O)Nc3ccc(NC(=O)c4ccccn4)cc3)C2)cc1` (configuration not stated), the EC50 (H4) was 5.33 µM (active), the EC50 [4] was > 120 µM (not active) and the EC50 [5] was 0.0809 µM (active).

In the case of `CCC1CCCCN1S(=O)(=O)c1ccc(S(=O)(=O)N2CCN(S(=O)(=O)CC)CC2)cc1` (configuration not stated), the EC50 (HEK293 [6]) is reported as > 55.9 µM (inactive), the EC50 (Insulin-degrading enzyme [7]) is reported as > 54.7 µM (inactive) and the IC50 (HEK293 [8]) is reported as > 9.91 µM (active). For the same molecule, the EC50 (Insulin-degrading enzyme [9]) was > 54.7 µM (inactive).

With `CCOC(=O)c1ccc(NC(=O)Cc2coc3cc4c(cc23)CCC4)cc1` the EC50 [5] was 7.53 µM (active).

For `CC1(C)C2CCC1(C)C1(C2)NC(=O)c2ccccc2O1` (configuration not stated), the IC50 (Phospholipase A2) was 11 µM (active) and the IC50 (Cysteine protease ATG4B) was 14.8 µM (active).
